Earlier results on two compounds are cited in US20150025006A1, “Pharmaceutical Combinations Including Anti-Inflammatory and Antioxidant Conjugates Useful for Treating Metabolic Disorders” (Genmedica Therapeutics SL, priority 2011, published 2015).

Data set [1] deals with Zucker fa/fa rats or ob/ob mice. As to conditions: 120 mg/kg/day, subcutaneous infusion, 3-4 weeks.
The next data set has as its system human diabetic patients. As to conditions: 4.5 g/day of salsalate.

Consider `O=C(O)c1ccccc1O` [Salicylate], for which, in data set [1], the anti-diabetic effects entry was “anti-diabetic effects, reduction in fasting blood glucose, and glucose tolerance improvement”.
Turning to `O=C(Oc1ccccc1C(=O)O)c1ccccc1O` [salsalate], in the data set with human diabetic patients, the “side effects, such as tinnitus, enhanced by” value is listed as 66%.
